Laboratory results reported in BindingDB's records for doi:10.1002/cbic.200900108 (University of British Columbia, 2009).

Target: T1, Trans-sialidase (Trypanosoma cruzi, UniProt Q26966)
T1 sequence (Q26966 whole entry): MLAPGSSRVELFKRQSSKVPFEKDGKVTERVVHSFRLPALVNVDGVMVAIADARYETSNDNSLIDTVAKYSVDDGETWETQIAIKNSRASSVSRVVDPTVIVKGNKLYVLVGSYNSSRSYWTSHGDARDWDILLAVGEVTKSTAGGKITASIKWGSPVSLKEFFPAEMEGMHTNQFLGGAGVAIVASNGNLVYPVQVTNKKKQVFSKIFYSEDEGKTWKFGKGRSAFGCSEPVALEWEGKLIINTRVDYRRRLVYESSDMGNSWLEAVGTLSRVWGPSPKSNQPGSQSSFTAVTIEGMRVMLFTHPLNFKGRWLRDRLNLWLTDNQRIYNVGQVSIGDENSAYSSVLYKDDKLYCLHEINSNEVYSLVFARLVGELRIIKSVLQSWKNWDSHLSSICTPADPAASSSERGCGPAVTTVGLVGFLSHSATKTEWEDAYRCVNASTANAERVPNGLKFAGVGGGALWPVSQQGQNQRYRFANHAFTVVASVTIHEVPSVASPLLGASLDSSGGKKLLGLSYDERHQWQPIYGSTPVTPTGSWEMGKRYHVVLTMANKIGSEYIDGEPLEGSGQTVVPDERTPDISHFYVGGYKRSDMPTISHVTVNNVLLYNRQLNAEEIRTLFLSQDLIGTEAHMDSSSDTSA
Test: Inhibition Assay
Conditions: pH 7.6; 35 °C
Text: Inhibition assay using trans-sialidase, a membrane-associated protein.

Structure (SMILES) | IC50 [µM] | Ki [µM]
Cc1ccc(S(=O)(=O)Nc2cccc(C(=O)/C=C/c3ccc(O)cc3)c2)cc1 [Sulfonamide chalcone, 6] | 37 | –
Cc1ccc(S(=O)(=O)Nc2cccc(C(=O)/C=C/c3ccc(O)c(O)c3)c2)cc1 | 2.5 | 3.7
Cc1ccc(S(=O)(=O)N2c3ccccc3C(=O)/C(=C/c3ccc(O)cc3)C2c2ccc(O)cc2)cc1 (centres undefined) [Quinolinone derivative, 8] | 30 | –

The remaining molecules from weak to strong by IC50, led by results:

IC50 [µM] | Ki [µM] | Structure (SMILES)
73 | – | Cc1ccc(S(=O)(=O)Nc2ccc(C(=O)/C=C/c3ccc(O)cc3)cc2)cc1
0.9 | 4.6 | Cc1ccc(S(=O)(=O)Nc2ccc(C(=O)/C=C/c3ccc(O)c(O)c3)cc2)cc1
0.6 | 0.4 | Cc1ccc(S(=O)(=O)N2c3ccccc3C(=O)/C(=C/c3ccc(O)c(O)c3)C2c2ccc(O)c(O)c2)cc1 (centres undefined) [Quinolinone derivative, 9]
